Values joined by “and” are separate entries in the source; they are usually repeats but may differ in a detail not shown here. Identical values can stand only once. Records with an inconclusive call do not appear. How the source made its calls: active means survival T/C of 150% or more; inactive means T/C below 125% in these data.
Tested on: CD2F1 mice, Lymphoma 8 ip, survival T/C
Test: NCI In Vivo Anticancer Drug Screen. Data for tumor model Lymphoma 8 (intraperitoneal) in CD2F1 (CDF1) mice
Settings: higher = longer survival
Procedure: The antitumor activity of compounds was measured in mice bearing transplantable tumors. Survival or tumor size were measured and the results are expressed as the measurement made in the treated group (T) divided by the measurement made in the vehicle treated control group (C). The tumor model used in this assay is Lymphoma 8 (intraperitoneal) in CD2F1 (CDF1) mice

[1] = endpoint: median survival time, dose: 50.0 mg/kg/injection, schedule: Q01DX009 (ip), vehicle: saline
[2] = endpoint: median survival time, dose: 100.0 mg/kg/injection, schedule: Q01DX009 (ip), vehicle: saline
[3] = endpoint: median survival time, dose: 100.0 mg/kg/injection, schedule: Q01DX005 (ip), vehicle: water
[4] = endpoint: median survival time, dose: 200.0 mg/kg/injection, schedule: Q01DX005 (ip), vehicle: water
[5] = endpoint: median survival time, dose: 400.0 mg/kg/injection, schedule: Q01DX005 (ip), vehicle: water
[6] = endpoint: median survival time, dose: 50.0 mg/kg/injection, schedule: Q01DX005 (ip), vehicle: saline
[7] = endpoint: median survival time, dose: 100.0 mg/kg/injection, schedule: Q01DX005 (ip), vehicle: saline
[8] = endpoint: median survival time, dose: 200.0 mg/kg/injection, schedule: Q01DX005 (ip), vehicle: saline
[9] = endpoint: median survival time, dose: 400.0 mg/kg/injection, schedule: Q01DX005 (ip), vehicle: saline

Measured: T/C

NC(=O)C(F)(F)C(N)C(=O)O (stereo unspecified)
inactive: [1] 88 % of control | [2] 88 % of control

NC(=O)CC(N)CO (stereo unspecified)
inactive: [1] 87 % of control and 100 % of control | [2] 91 % of control and 100 % of control | endpoint: median survival time, dose: 200.0 mg/kg/injection, schedule: Q01DX009 (ip), vehicle: saline 97 % of control and 98 % of control | endpoint: median survival time, dose: 400.0 mg/kg/injection, schedule: Q01DX009 (ip), vehicle: saline 91 % of control and 102 % of control

O=CC(S)CO (stereo unspecified)
inactive: endpoint: median survival time, dose: 25.0 mg/kg/injection, schedule: Q01DX010 (ip), vehicle: saline 92 % of control | endpoint: median survival time, dose: 50.0 mg/kg/injection, schedule: Q01DX010 (ip), vehicle: saline 92 % of control | endpoint: median survival time, dose: 100.0 mg/kg/injection, schedule: Q01DX010 (ip), vehicle: saline 100 % of control

O=c1[nH]c(=O)n(C2CC(O)C(CO)O2)cc1F (stereo unspecified)
inactive: endpoint: survival time, mean or median, dose: 5.0 mg/kg/injection, schedule: Q01DX010 (ip), vehicle: saline 104 % of control | endpoint: survival time, mean or median, dose: 10.0 mg/kg/injection, schedule: Q01DX010 (ip), vehicle: saline 109 % of control | endpoint: survival time, mean or median, dose: 20.0 mg/kg/injection, schedule: Q01DX010 (ip), vehicle: saline 113 % of control

CC/C(=C(/CC)c1ccc(O)cc1)c1ccc(O)cc1
inactive: endpoint: survival time, mean or median, dose: 12.5 mg/kg/injection, schedule: Q01DX010 (sc), vehicle: steriod suspending solution 90 % of control | endpoint: survival time, mean or median, dose: 25.0 mg/kg/injection, schedule: Q01DX010 (sc), vehicle: steriod suspending solution 90 % of control | endpoint: survival time, mean or median, dose: 50.0 mg/kg/injection, schedule: Q01DX010 (sc), vehicle: steriod suspending solution 90 % of control and 95 % of control | endpoint: survival time, mean or median, dose: 100.0 mg/kg/injection, schedule: Q01DX010 (sc), vehicle: steriod suspending solution 90 % of control

CC(=O)NC(CCC(=O)C=[N+]=N)C(=O)O (stereo unspecified)
inactive: endpoint: median survival time, dose: 0.5 mg/kg/injection, schedule: Q01DX002 (ip), vehicle: saline 100 % of control | endpoint: median survival time, dose: 0.5 mg/kg/injection, schedule: Q04DX002 (ip), vehicle: saline 96 % of control | endpoint: median survival time, dose: 1.0 mg/kg/injection, schedule: Q01DX002 (ip), vehicle: saline 103 % of control | endpoint: median survival time, dose: 1.0 mg/kg/injection, schedule: Q04DX002 (ip), vehicle: saline 114 % of control | endpoint: median survival time, dose: 2.0 mg/kg/injection, schedule: Q01DX002 (ip), vehicle: saline 106 % of control | endpoint: median survival time, dose: 2.0 mg/kg/injection, schedule: Q04DX002 (ip), vehicle: saline 107 % of control

N[C@H](C(=O)O)[C@@H]1CC(Cl)=NO1
inactive: endpoint: median survival time, dose: 0.38 mg/kg/injection, schedule: Q01DX009 (ip), vehicle: saline 105 % of control | endpoint: median survival time, dose: 0.75 mg/kg/injection, schedule: Q01DX009 (ip), vehicle: saline 115 % of control | endpoint: median survival time, dose: 1.5 mg/kg/injection, schedule: Q01DX009 (ip), vehicle: saline 118 % of control

O=c1[nH]cc(F)c(=O)[nH]1
inactive: endpoint: median survival time, dose: 13.0 mg/kg/injection, schedule: Q04DX003 (ip), vehicle: saline 110 % of control | endpoint: median survival time, dose: 21.8 mg/kg/injection, schedule: Q04DX003 (ip), vehicle: saline 118 % of control | endpoint: median survival time, dose: 36.0 mg/kg/injection, schedule: Q04DX003 (ip), vehicle: saline 114 % of control | endpoint: median survival time, dose: 100.0 mg/kg/injection, schedule: Q04DX003 (ip), vehicle: saline 62 % of control

NC(CC(=O)O)C(=O)O (stereo unspecified)
inactive: [3] 95 % of control and 100 % of control | [4] 100 % of control | [5] 100 % of control | endpoint: median survival time, dose: 800.0 mg/kg/injection, schedule: Q01DX005 (ip), vehicle: water 91 % of control

NCCC(N)=O
inactive: [6] 92 % of control and 94 % of control | [7] 92 % of control and 94 % of control | [8] 92 % of control and 94 % of control | [9] 92 % of control and 94 % of control

NC(CC(=O)NO)C(=O)O (stereo unspecified)
inactive: [3] 100 % of control | [4] 108 % of control | [5] 108 % of control

NCC(=O)O
inactive: endpoint: median survival time, dose: 187.5 mg/kg/injection, schedule: Q04HX003 (ip), vehicle: saline 86 % of control | endpoint: median survival time, dose: 375.0 mg/kg/injection, schedule: Q04HX003 (ip), vehicle: saline 86 % of control | endpoint: median survival time, dose: 750.0 mg/kg/injection, schedule: Q04HX003 (ip), vehicle: saline 81 % of control | endpoint: median survival time, dose: 1500.0 mg/kg/injection, schedule: Q04HX003 (ip), vehicle: saline 75 % of control

NC(=O)OCC(N)C(=O)O (stereo unspecified)
inactive: [6] 99 % of control and 100 % of control | [7] 100 % of control | [8] 88 % of control | [9] 92 % of control and 94 % of control

CN1C(=O)C=CC1=O
inactive: endpoint: median survival time, dose: 0.5 mg/kg/injection, schedule: Q01DX009 (ip), vehicle: saline 97 % of control and 102 % of control | endpoint: median survival time, dose: 1.0 mg/kg/injection, schedule: Q01DX009 (ip), vehicle: saline 102 % of control and 103 % of control | endpoint: median survival time, dose: 2.0 mg/kg/injection, schedule: Q01DX009 (ip), vehicle: saline 94 % of control and 100 % of control | endpoint: median survival time, dose: 4.0 mg/kg/injection, schedule: Q01DX009 (ip), vehicle: saline 94 % of control

CN(C)C(=O)/N=N/C(=O)N(C)C
inactive: endpoint: median survival time, dose: 12.5 mg/kg/injection, schedule: Q01DX005 (ip), vehicle: saline 95 % of control and 96 % of control and 98 % of control | endpoint: median survival time, dose: 25.0 mg/kg/injection, schedule: Q01DX005 (ip), vehicle: saline 90 % of control and 92 % of control and 96 % of control | [6] 90 % of control and 91 % of control and 104 % of control | [7] 88 % of control and 90 % of control (2×)

CNC(=O)CC(N)C(=O)O (stereo unspecified)
inactive: endpoint: median survival time, dose: 75.0 mg/kg/injection, schedule: Q01DX005 (ip), vehicle: saline 96 % of control and 102 % of control | endpoint: median survival time, dose: 150.0 mg/kg/injection, schedule: Q01DX005 (ip), vehicle: saline 107 % of control and 113 % of control | endpoint: median survival time, dose: 300.0 mg/kg/injection, schedule: Q01DX005 (ip), vehicle: saline 93 % of control and 113 % of control | endpoint: median survival time, dose: 600.0 mg/kg/injection, schedule: Q01DX005 (ip), vehicle: saline 95 % of control and 114 % of control | endpoint: median survival time, dose: 1200.0 mg/kg/injection, schedule: Q01DX005 (ip), vehicle: saline 102 % of control

C[C@]12C=CC(=O)C=C1CC[C@@H]1[C@@H]2C(=O)C[C@@]2(C)[C@H]1CC[C@]2(O)C(=O)CO
inactive: endpoint: median survival time, dose: 12.5 mg/kg/injection, schedule: Q01DX005 (sc), vehicle: steriod suspending solution 105 % of control and 107 % of control and 108 % of control | endpoint: median survival time, dose: 25.0 mg/kg/injection, schedule: Q01DX005 (sc), vehicle: steriod suspending solution 96 % of control and 104 % of control and 108 % of control | endpoint: median survival time, dose: 50.0 mg/kg/injection, schedule: Q01DX005 (sc), vehicle: steriod suspending solution 96 % of control and 99 % of control and 100 % of control | endpoint: median survival time, dose: 100.0 mg/kg/injection, schedule: Q01DX005 (sc), vehicle: steriod suspending solution 100 % of control and 103 % of control and 104 % of control | endpoint: median survival time, dose: 200.0 mg/kg/injection, schedule: Q01DX005 (sc), vehicle: steriod suspending solution 111 % of control and 112 % of control
